From ChEMBL document CHEMBL3885881, “DrugMatrix”

Species on record: Rattus norvegicus
Assay: DrugMatrix - Regimen: Daily Repeat
Assay type: toxicity, organism-based, Sprague-Dawley
Design: regimen Daily Repeat, gender Male, age 6-8 weeks
Settings: in vivo, po, route oral GAVAGE, vehicle 100 % WATER; for BASOPHIL / EOSINOPHIL / ERYTHROCYTE COUNT / HEMATOCRIT / HEMOGLOBIN / LEUKOCYTE COUNT / LYMPHOCYTE / MEAN CORPUSCULAR HEMOGLOBIN / MEAN CORPUSCULAR HEMOGLOBIN CONCENTRATION / MONOCYTE / NEUTROPHIL / PLATELET COUNT: tissue Blood; for ALANINE AMINOTRANSFERASE / ALBUMIN / ALKALINE PHOSPHATASE / ASPARTATE AMINOTRANSFERASE / BLOOD UREA NITROGEN / CHLORIDE / CHOLESTEROL / CREATINE PHOSPHOKINASE / CREATININE / GLUCOSE / PHOSPHORUS / POTASSIUM / SODIUM / TOTAL BILIRUBIN / TOTAL PROTEIN: tissue Plasma
[1] = 0 mg/kg, 72 h, dose level Control, time 3 day
[2] = 0 mg/kg, 120 h, dose level Control, time 5 day
[3] = 755 mg/kg, 72 h, dose level High, time 3 day
[4] = 755 mg/kg, 120 h, dose level High, time 5 day

CCN(CC)CCNC(=O)c1ccc(N)cc1 [PROCAINAMIDE] was tested, and the BASOPHIL [1] was 0%, the EOSINOPHIL [1] was 0.33% and the “ERYTHROCYTE COUNT” value [1] was 5.88 x10E6/uL. The HEMATOCRIT [1] was 36.47%, the HEMOGLOBIN [1] was 14.2 G/DL and the “LEUKOCYTE COUNT” value [1] was 9.28 x10E3/uL. The LYMPHOCYTE [1] was 82.33%, the “MEAN CORPUSCULAR HEMOGLOBIN” value [1] was 24.2 pg and the “MEAN CORPUSCULAR HEMOGLOBIN CONCENTRATION” value [1] was 38.97 G/DL. For the same molecule, the MONOCYTE [1] was 2.33%, the NEUTROPHIL [1] was 15% and the “PLATELET COUNT” value [1] was 1114 x10E3/uL. The “ALANINE AMINOTRANSFERASE” value [1] was 41.17 u/L, the ALBUMIN [1] was 3.95 G/DL and the “ALKALINE PHOSPHATASE” value [1] was 382.5 u/L. The “ASPARTATE AMINOTRANSFERASE” value [1] was 67.33 u/L, the “BLOOD UREA NITROGEN” value [1] was 15.5 mg/dL and the CHLORIDE [1] was 106.33 MEQ/L. For the same molecule, the CHOLESTEROL [1] was 77.67 mg/dL, the “CREATINE PHOSPHOKINASE” value [1] was 123.33 u/L and the CREATININE [1] was 0.62 mg/dL. It also gave a GLUCOSE [1] of 185.67 mg/dL, a PHOSPHORUS [1] of 10.2 mg/dL and a POTASSIUM [1] of 6.72 MEQ/L. For the same molecule, the SODIUM [1] was 149.67 MEQ/L, the “TOTAL BILIRUBIN” value [1] was 0.97 mg/dL and the “TOTAL PROTEIN” value [1] was 6.58 G/DL. The BASOPHIL [2] was 0%, the EOSINOPHIL [2] was 0% and the “ERYTHROCYTE COUNT” value [2] was 5.99 x10E6/uL. For the same molecule, the HEMATOCRIT [2] was 36.88%, the HEMOGLOBIN [2] was 14.77 G/DL and the “LEUKOCYTE COUNT” value [2] was 11.35 x10E3/uL. For the same molecule, the LYMPHOCYTE [2] was 85.5%, the “MEAN CORPUSCULAR HEMOGLOBIN” value [2] was 24.7 pg and the “MEAN CORPUSCULAR HEMOGLOBIN CONCENTRATION” value [2] was 40.07 G/DL. The MONOCYTE [2] was 1.83%, the NEUTROPHIL [2] was 12.67% and the “PLATELET COUNT” value [2] was 979.67 x10E3/uL. For the same molecule, the “ALANINE AMINOTRANSFERASE” value [2] was 36.5 u/L, the ALBUMIN [2] was 3.63 G/DL and the “ALKALINE PHOSPHATASE” value [2] was 303.5 u/L. The “ASPARTATE AMINOTRANSFERASE” value [2] was 61 u/L, the “BLOOD UREA NITROGEN” value [2] was 16.5 mg/dL and the CHLORIDE [2] was 106.17 MEQ/L. The “CREATINE PHOSPHOKINASE” value [2] was 154.83 u/L, the CREATININE [2] was 0.6 mg/dL and the GLUCOSE [2] was 201 mg/dL. It also gave a PHOSPHORUS [2] of 10.1 mg/dL, a POTASSIUM [2] of 6.85 MEQ/L and an SODIUM [2] of 148.17 MEQ/L. For the same molecule, the “TOTAL BILIRUBIN” value [2] was 0.58 mg/dL, the “TOTAL PROTEIN” value [2] was 5.9 G/DL and the BASOPHIL [3] was 0%. The EOSINOPHIL [3] was 0%, the “ERYTHROCYTE COUNT” value [3] was 5.39 x10E6/uL and the HEMATOCRIT [3] was 32.67%. The HEMOGLOBIN [3] was 13.03 G/DL, the “LEUKOCYTE COUNT” value [3] was 10.2 x10E3/uL and the LYMPHOCYTE [3] was 85.67%. The “MEAN CORPUSCULAR HEMOGLOBIN” value [3] was 24.17 pg, the “MEAN CORPUSCULAR HEMOGLOBIN CONCENTRATION” value [3] was 39.9 G/DL and the MONOCYTE [3] was 1.33%. The NEUTROPHIL [3] was 13%, the “PLATELET COUNT” value [3] was 1063.33 x10E3/uL and the “ALANINE AMINOTRANSFERASE” value [3] was 43 u/L. For the same molecule, the ALBUMIN [3] was 3.9 G/DL, the “ALKALINE PHOSPHATASE” value [3] was 441.33 u/L and the “ASPARTATE AMINOTRANSFERASE” value [3] was 61 u/L. For the same molecule, the “BLOOD UREA NITROGEN” value [3] was 16 mg/dL, the CHLORIDE [3] was 105.33 MEQ/L and the CHOLESTEROL [3] was 74.33 mg/dL. For the same molecule, the “CREATINE PHOSPHOKINASE” value [3] was 142.67 u/L, the CREATININE [3] was 0.57 mg/dL and the GLUCOSE [3] was 176.33 mg/dL. The PHOSPHORUS [3] was 11.97 mg/dL, the POTASSIUM [3] was 6.97 MEQ/L and the SODIUM [3] was 150.67 MEQ/L. For the same molecule, the “TOTAL BILIRUBIN” value [3] was 0.6 mg/dL, the “TOTAL PROTEIN” value [3] was 6.5 G/DL and the BASOPHIL [4] was 0%. The EOSINOPHIL [4] was 0%, the “ERYTHROCYTE COUNT” value [4] was 5.45 x10E6/uL and the HEMATOCRIT [4] was 33.47%. The HEMOGLOBIN [4] was 14.6 G/DL, the “LEUKOCYTE COUNT” value [4] was 13.8 x10E3/uL and the LYMPHOCYTE [4] was 87.67%. For the same molecule, the “MEAN CORPUSCULAR HEMOGLOBIN” value [4] was 26.87 pg, the “MEAN CORPUSCULAR HEMOGLOBIN CONCENTRATION” value [4] was 43.7 G/DL and the MONOCYTE [4] was 1.33%. For the same molecule, the NEUTROPHIL [4] was 11%, the “PLATELET COUNT” value [4] was 830.33 x10E3/uL and the “ALANINE AMINOTRANSFERASE” value [4] was 40.67 u/L. The ALBUMIN [4] was 3.73 G/DL, the “ALKALINE PHOSPHATASE” value [4] was 378.67 u/L and the “ASPARTATE AMINOTRANSFERASE” value [4] was 63 u/L. For the same molecule, the “BLOOD UREA NITROGEN” value [4] was 14.33 mg/dL, the CHLORIDE [4] was 107.33 MEQ/L and the CHOLESTEROL [4] was 74 mg/dL. For the same molecule, the “CREATINE PHOSPHOKINASE” value [4] was 117.33 u/L, the CREATININE [4] was 0.67 mg/dL and the GLUCOSE [4] was 180 mg/dL. For the same molecule, the PHOSPHORUS [4] was 10.5 mg/dL, the POTASSIUM [4] was 6.57 MEQ/L and the SODIUM [4] was 152.33 MEQ/L. The “TOTAL BILIRUBIN” value [4] was 0.53 mg/dL and the “TOTAL PROTEIN” value [4] was 6.03 G/DL.
